According to patent US20240335431A1, “1-H-PYRROLO[2,3-c]PYRIDINE COMPOUNDS” (Acerta Pharma B.V., priority 2023, published 2024):
Read-outs that look alike come from different tables or passages of the source.

Key:
[1] = Human hepatocyte intrinsic clearance assay; type: in vitro ADME; conditions: human hepatocytes
In short: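 Pooled 10-donor cryopreserved human hepatocytes in suspension (0.25×10^6 cells in 0.25 mL) incubated with test compound at […], 37° C. Samples taken 0.5–120 min and quenched in acetonitrile, parent remaining measured by LC-MS/MS. CLint ([…]) derived from slope of ln % remaining vs time.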

HEL cells = assay: Proliferation assay, HEL control cell line (CellTiter-Glo, 7 days); type: cell-based, human
In short: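 Cells were seeded at line-specific low densities for linear growth, exposed to 3.16-fold serial compound dilutions at 0.1% DMSO, and incubated 7 days at 37 °C, 5% CO2. Viability was read by CellTiter-Glo 2.0 luminescence; IC50 came from one-site fits of % inhibition, normalized between DMSO-treated cells (100%) and a day-0 plate (0%).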

Compound	HH CLint [1]	IC50 (HEL cells; Homo sapiens, HEL, 168 h)	IC50 (HEL cells)
CCN(C(=O)c1cc(F)ccc1-n1c(C)c(C(=O)C2CCN(C(=O)[C@H]3NC[C@@H]4C[C@@H]43)CC2)c2ccncc21)C(C)C [Example 47, 2-(3-(1-((1S,2S,5R)-3-Azabicyclo[3.1.0]hexane-2-carbonyl)piperidine-4-carbonyl)-2-methyl-1H-pyrrolo[2,3-c]pyridin-1-yl)-N-ethyl-5-fluoro-N-isopropylbenzamide]	2.1 μl/min/1E6	> 10 µM	
CCN(C(=O)c1cc(F)ccc1-n1c(C)c(C(=O)C2CCN(C(=O)[C@H]3NC[C@@H]4C[C@@H]43)CC2)c2ccncc21)C(C)C (single isomer, unassigned) [Example 48-2]	<1.0 μl/min/1E6		> 10 µM
CC(C)c1ccncc1-c1cc(F)ccc1-n1cc(C(=O)C2CCN(C(=O)[C@H]3N[C@@H]4CC[C@H]3C4)CC2)c2ccncc21 [Example 41, (1-((1R,3S,4S)-2-Azabicyclo[2.2.1]heptane-3-carbonyl)piperidin-4-yl)(1-(4-fluoro-2-(4-isopropylpyridin-3-yl)phenyl)-1H-pyrrolo[2,3-c]pyridin-3-yl)methanone]	1.7 μl/min/1E6	> 10 µM	
CC(C)N(C(=O)c1cc(F)ccc1-n1cc(C(=O)C2CCN(C[C@H]3CC[C@H](NS(C)(=O)=O)CC3)CC2)c2ccncc21)C(C)C [Example 17, 5-Fluoro-N,N-diisopropyl-2-(3-(1-(((1r,4r)-4-(methylsulfonamido)cyclohexyl)-methyl)piperidine-4-carbonyl)-1H-pyrrolo[2,3-c]pyridin-1-yl)benzamide]	1.2 μl/min/1E6	> 10 µM	
CCN(C(=O)c1cc(F)ccc1-n1c(C)c(C(=O)C2CCN(C(=O)[C@H]3NC[C@@H]4C[C@@H]43)CC2)c2ccncc21)C(C)C (single isomer, unassigned) [Example 48-1]	<1.0 μl/min/1E6		> 10 µM
CCN(C(=O)c1cc(F)ccc1-n1cc(C(=O)C2CCN(C(=O)[C@H]3NC[C@@H]4C[C@@H]43)CC2)c2ccncc21)C(C)C [Example 28, 2-(3-(1-((1S,2S,5R)-3-Azabicyclo[3.1.0]hexane-2-carbonyl)piperidine-4-carbonyl)-1H-pyrrolo[2,3-c]pyridin-1-yl)-N-ethyl-5-fluoro-N-isopropylbenzamide]	<1.0 μl/min/1E6	> 10 µM	
CC(C)N(C(=O)c1cc(F)ccc1-n1cc(C(=O)C2CCN(C(=O)[C@H]3NC[C@@H]4CC[C@@H]43)CC2)c2ccncc21)C(C)C (relative stereo) [Example 25, rel-2-(3-(1-((1R,2R,5S)-3-Azabicyclo[3.2.0]heptane-2-carbonyl)piperidine-4-carbonyl)-1H-pyrrolo[2,3-c]pyridin-1-yl)-5-fluoro-N,N-diisopropylbenzamide]	3.6 μl/min/1E6	> 10 µM	
C=C1C[C@@H]2CC[C@H]1[C@@H](C(=O)N1CCC(C(=O)c3cn(-c4ccc(F)cc4C(=O)N(C(C)C)C(C)C)c4cnccc34)CC1)N2 [Example 18, 5-Fluoro-N,N-diisopropyl-2-(3-(1-((1S,3S,4R)-5-methylene-2-azabicyclo[2.2.2]-octane-3-carbonyl)piperidine-4-carbonyl)-1H-pyrrolo[2,3-c]pyridin-1-yl)benzamide]	1.6 μl/min/1E6	> 10 µM	
Cc1c(C(=O)C2CCN(C(=O)[C@@H]3CCC(C)(C)N3)CC2)c2ccncc2n1-c1ccc(F)cc1C(=O)N(C(C)C)C(C)C (single isomer, unassigned) [Example 56-1]	6.9 μl/min/1E6	> 10 µM	
Cc1c(C(=O)C2CCN(C(=O)[C@@H]3CCC(C)(C)N3)CC2)c2ccncc2n1-c1ccc(F)cc1C(=O)N(C(C)C)C(C)C (single isomer, unassigned) [Compound 56-2]	3.4 μl/min/1E6		> 10 µM
CCN(C(=O)c1cc(F)ccc1-n1c(C)c(C(=O)C2CCN(C(=O)[C@H]3N[C@@H]4CC[C@H]3C4)CC2)c2ccncc21)C(C)C [Example 46, 2-(3-(1-((1R,3S,4S)-2-Azabicyclo[2.2.1]heptane-3-carbonyl)piperidine-4-carbonyl)-2-methyl-1H-pyrrolo[2,3-c]pyridin-1-yl)-N-ethyl-5-fluoro-N-isopropylbenzamide]	<1.0 μl/min/1E6	> 10 µM	
CCN(C(=O)c1cc(F)ccc1-n1c(C)c(C(=O)C2CCN(C(=O)[C@@H]3CCC(C)(C)N3)CC2)c2ccncc21)C(C)C (single isomer, unassigned) [Example 50-2]	<1.0 μl/min/1E6		> 10 µM
CC(C)N(C(=O)c1cc(F)ccc1-n1cc(C(=O)[C@@H]2CCN(C(=O)[C@H]3N[C@@H]4CC[C@H]3C4)C2)c2ccncc21)C(C)C [Example 3, 2-(3-((R)-1-((1R,3S,4S)-2-Azabicyclo[2.2.1]heptane-3-carbonyl)pyrrolidine-3-carbonyl)-1H-pyrrolo[2,3-c]pyridin-1-yl)-5-fluoro-N,N-diisopropylbenzamide]	<1.0 μl/min/1E6	> 10 µM	
CC(C)N(C(=O)c1cc(F)ccc1-n1cc(C(=O)C2CCN(C(=O)[C@H]3N[C@H]4C[C@@H]3[C@@H](F)C4)CC2)c2ccncc21)C(C)C [Example 22, 5-Fluoro-2-(3-(1-((1S,3S,4S,5S)-5-fluoro-2-azabicyclo[2.2.1]heptane-3-carbonyl)piperidine-4-carbonyl)-1H-pyrrolo[2,3-c]pyridin-1-yl)-N,N-diisopropylbenzamide]	<1.7 μl/min/1E6	> 10 µM	
CC(C)N(C(=O)c1cc(F)ccc1-n1cc(C(=O)C2CCN(C(=O)[C@@H]3CC4(CC4)CN3)CC2)c2ccncc21)C(C)C [Example 26, (S)-2-(3-(1-(5-Azaspiro[2.4]heptane-6-carbonyl)piperidine-4-carbonyl)-1H-pyrrolo[2,3-c]pyridin-1-yl)-5-fluoro-N,N-diisopropylbenzamide]	<1.0 μl/min/1E6	> 10 µM	
Cc1c(C(=O)C2CCN(C(=O)[C@H]3NC[C@@H]4C[C@@H]43)CC2)c2ccncc2n1-c1ccc(F)cc1C(=O)N(C(C)C)C(C)C (single isomer, unassigned) [Example 55-2]	4.2 μl/min/1E6		> 10 µM
CC(C)c1ncsc1-c1cc(F)ccc1-n1cc(C(=O)C2CCN(C(=O)[C@H]3N[C@@H]4CC[C@H]3C4)CC2)c2ccncc21.O=CO [Example 42, (1-((1R,3S,4S)-2-Azabicyclo[2.2.1]heptane-3-carbonyl)piperidin-4-yl)(1-(4-fluoro-2-(4-isopropylthiazol-5-yl)phenyl)-1H-pyrrolo[2,3-c]pyridin-3-yl)methanone 1·formic acid]	2.5 μl/min/1E6	> 10 µM	
CC(C)n1nccc1-c1cc(F)ccc1-n1cc(C(=O)C2CCN(C(=O)[C@H]3N[C@@H]4CC[C@H]3C4)CC2)c2ccncc21 [Example 36, (1-((1R,3S,4S)-2-Azabicyclo[2.2.1]heptane-3-carbonyl)piperidin-4-yl)(1-(4-fluoro-2-(1-isopropyl-1H-pyrazol-5-yl)phenyl)-1H-pyrrolo[2,3-c]pyridin-3-yl)methanone]	<1.0 μl/min/1E6	> 10 µM	
CC(C)N(C(=O)c1cc(F)ccc1-n1cc(C(=O)[C@H]2CCN(C[C@H]3CC[C@H](NS(C)(=O)=O)CC3)C2)c2ccncc21)C(C)C [Example 1, 5-Fluoro-N,N-diisopropyl-2-(3-((S)-1-(((1r,4S)-4-(methylsulfonamido)-cyclohexyl)methyl)pyrrolidine-3-carbonyl)-1H-pyrrolo[2,3-c]pyridin-1-yl)benzamide]	2.6 μl/min/1E6	> 10 µM	
